Reference: US12178807B2, “Macrocyclic tyrosine kinase inhibitor and uses thereof” (XUANZHU BIOPHARMACEUTICAL CO., LTD., priority 2018, dated 2024)

Tests used:
[1] = tested on: Ba/F3 ETV6-NTRK3-G623R cell line; experiment: In vitro cytological inhibitory activity (CelltiterGlo assay); type: cell-based; conditions: Mus musculus, BaF3, Ba/F3 ETV6-NTRK3-G623R cells, 72 hrs
Description: (§1) The cell lines used in the experiment have the following meanings: Ba/F3 LMNA-NTRK1-G595R cell line: • a stable expression cell line of Ba/F3 cells transfected with LMNA-NTRK1 G595R; Ba/F3 ETV6-NTRK3-G623R cell line: • a stable expression cell line of Ba/F3 cells transfected with ETV6-NTRK3-G623R. Experimental Method (CelltiterGlo Assay) 1. Cell Culture and Inoculation
(§2) All cells were suspension cells and the medium was RPMI-1640+10% FBS, and cells were tested in a logarithmic growth phase.
(§3) Cells in the logarithmic growth phase were collected and counted using a […]. The cell viability was detected by the trypan blue exclusion method, and the cell viability was kept over 90%. The cell concentration was adjusted to be in a proper range; 90 μL of the cell suspension was added to a 96-well plate.
(§4) The stock solutions of test compounds were diluted from 10 mM to 1 mM with DMSO and then serially diluted in a 3-fold gradient for 9 concentrations. The 2 μL DMSO-gradient diluted compound solutions were added to 98 μL culture solutions to give working stock solutions of test compounds (compound concentration was 10-fold higher than the final concentration, DMSO concentration was 1%, maximum concentration was 10 μM).
(§5) • 10 μL of compound working stock solution was added to each well in the 96-well plate inoculated with cells (10-fold dilution, final DMSO concentration was 0.1%).
(§6) The cells were cultured in a cell culture incubator at 5% CO2 for 72 hrs.
(§7) The CTG reagent was thawed and the cell plate was equilibrated to room temperature for 30 mins, 60 μL of reagent (Celltiter Glo assay kit) was added to each well, shaking was performed for 2 mins with a shaker (in the absence of light), and the plate was incubated at room temperature for 10 mins (in the absence of light). The light signal values were read on the multi-functional microplate reader.
(§8) • 1) Inhibition (%)=(DMSO solvent control well reading−test compound well reading)/(DMSO solvent control well reading−blank well reading)×100%; • 2) a curve was plotted with GraphPad Prism 5.0 and IC50 was obtained.

[2] = tested on: Ba/F3 LMNA-NTRK1-G595R cell line; experiment: as above; type: cell-based; conditions: Mus musculus, BaF3, Ba/F3 LMNA-NTRK1-G595R cells, 72 hrs
Description: as §1, §2, §3, §4, §5, §6, §7, §8

[3] = tested on: Ba/F3 SLC34A2/ROS1-G2032R cell line; experiment: In vitro cytological inhibitory activity (Celltiter-Glo assay); type: cell-based; conditions: Mus musculus, BaF3, Ba/F3 SLC34A2/ROS1-G2032R cells, 72 hrs
Description: The cell lines used in the experiment have the following meanings: • Ba/F3 SLC34A2/ROS1-G2032R cell line: • a stable expression cell line of Ba/F3 cells transfected with SLC34A2/ROS1-G2032R. Experimental Method (Celltiter-Glo Assay) 1. Cell Culture and Inoculation
as §2, §3
as §4, with “3.16-fold” for “3-fold”
as §5
The final concentrations of test compounds were: 1000 nM, 316 nM, 100 nM, 31.6 nM, 10 nM, 3.16 nM, 1 nM, 0.316 nM and 0.1 nM.
as §6
as §7, with “100” for “60”, “5” for “2”, “20” for “10”
• 1) Cell viability (%)=(test compound well reading−blank well reading)/(DMSO solvent control well reading−blank well reading)×100%; • 2) a curve was plotted with GraphPad Prism 5.0 and IC50 was obtained.

[4] = tested on: BaF3-LMNA-NTRK1-G595R stable cell strain xenograft tumor; experiment: Efficacy study on BaF3-LMNA-NTRK1-G595R stable cell strain subcutaneous xenograft model; type: in vivo, mice (NOD-SCID); conditions: bid, p.o., 7 days
Description: The RPMI 1640 serum-free medium resuspended BaF3 LMNA-NTRK1-G595R stable cell strains were inoculated subcutaneously in the right scapular region of mice (NOD-SCID) at 1×10^6 cells/mouse (0.1 mL/mouse).
When the average tumor volume was around 500 mm^3, the groups were randomized into vehicle group, Compound 3 group (10 mg/kg, 5 mg/kg, 3 mg/kg, 1 mg/kg, bid) and LOXO-195 group (30 mg/kg, 10 mg/kg, 3 mg/kg, bid).

Row | IC50 [1] [nM] | IC50 [2] [nM] | IC50 [3] [nM] | SMILES | T/C (%) ([4]; Experiment 1, 3 mg/Kg) | TGI (%) ([4]; Experiment 1, 3 mg/Kg) | further results
1 | 1.9 | 2 | 4.2 | C[C@@H]1CCc2ncc(F)cc2[C@H]2CCCN2c2ccc3ncn(c3n2)C(=O)N1 (single isomer, unassigned) [Compound 11] | – | – | –
2 | – | – | – | C[C@@H]1CCc2ncc(F)cc2[C@H]2CCCN2c2ccn3ncc(c3n2)C(=O)N1 [LOXO-195, reference compound] | 93.6 | 6.4 | T/C (%) ([4]; Experiment 1, 10 mg/Kg): 63.1%; TGI (%) ([4]; Experiment 1, 10 mg/Kg): 36.9%; T/C (%) ([4]; Experiment 2, 30 mg/Kg): 0%; TGI (%) ([4]; Experiment 2, 30 mg/Kg): 100%
3 | 18.9 | 17.3 | 6.7 | C[C@H]1COc2ncc(F)cc2[C@@H](C)Nc2ccc3ncn(c3n2)C(=O)N1 [Compound 13, (3R,7S)-4^5-fluoro-3,7-dimethyl-1^3H-5-oxa-2,8-diaza-1(5,3)-imidazo[4,5-b]pyridina-4(3,2)-pyridinacyclononphan-9-one] | – | – | –
4 | 1 | 0.6 | – | C[C@H]1COc2ncc(F)cc2[C@H]2CCCN2c2ccc3ncn(c3n2)C(=O)N1 (single isomer, unassigned) [Compound 2] | – | – | –
5 | 1 | 0.6 | 2.3 | C[C@@H]1COc2ncc(F)cc2[C@H]2CCCN2c2ccc3ncn(c3n2)C(=O)N1 (single isomer, unassigned) [Compound 3] | 73.2 | 26.8 | T/C (%) ([4]; Experiment 2, 1 mg/Kg): 53.7%; TGI (%) ([4]; Experiment 2, 1 mg/Kg): 46.3%; T/C (%) ([4]; Experiment 2, 5 mg/Kg): 0%; TGI (%) ([4]; Experiment 2, 5 mg/Kg): 100%; T/C (%) ([4]; Experiment 2, 10 mg/Kg): 0%; TGI (%) ([4]; Experiment 2, 10 mg/Kg): 100%
